{"source": "ChEMBL document CHEMBL3044734", "about": "“Major secondary metabolites produced by two commercial Trichoderma strains active against different phytopathogens” (2006)", "type_in_all_cases": "functional", "key": {"Globisporangium ultimum [1]": {"tested_on": "Globisporangium ultimum", "test": "Antimicrobial activity against Pythium ultimum assessed as colony diameter at 100 ug/plug after 3 days ( Rvb = 8.50 cm)"}, "Globisporangium ultimum [2]": {"tested_on": "Globisporangium ultimum", "test": "Antimicrobial activity against Pythium ultimum assessed as colony diameter at 10 ug/plug after 3 days ( Rvb = 8.50 cm)"}, "Globisporangium ultimum [3]": {"tested_on": "Globisporangium ultimum", "test": "Antimicrobial activity against Pythium ultimum assessed as colony diameter at 1 ug/plug after 3 days ( Rvb = 8.50 cm)"}, "Globisporangium ultimum [4]": {"tested_on": "Globisporangium ultimum", "test": "Antimicrobial activity against Pythium ultimum assessed as colony diameter at 0.1 ug/plug after 3 days ( Rvb = 8.50 cm)"}, "Globisporangium ultimum [5]": {"tested_on": "Globisporangium ultimum", "test": "Antimicrobial activity against Pythium ultimum assessed as colony diameter at 0.01 ug/plug after 3 days ( Rvb = 8.50 cm)"}, "Rhizoctonia solani [6]": {"tested_on": "Rhizoctonia solani", "test": "Antimicrobial activity against Rhizoctonia solani assessed as colony diameter at 200 ug/plug after 3 days ( Rvb = 2.95 +/- 0.11 cm)"}, "Rhizoctonia solani [7]": {"tested_on": "Rhizoctonia solani", "test": "Antimicrobial activity against Rhizoctonia solani assessed as colony diameter at 100 ug/plug after 3 days ( Rvb = 2.95 +/- 0.11 cm)"}, "Rhizoctonia solani [8]": {"tested_on": "Rhizoctonia solani", "test": "Antimicrobial activity against Rhizoctonia solani assessed as colony diameter at 10 ug/plug after 3 days ( Rvb = 2.95 +/- 0.11 cm)"}, "Rhizoctonia solani [9]": {"tested_on": "Rhizoctonia solani", "test": "Antimicrobial activity against Rhizoctonia solani assessed as colony diameter at 1 ug/plug after 3 days ( Rvb = 2.95 +/- 0.11 cm)"}, "Rhizoctonia solani [10]": {"tested_on": "Rhizoctonia solani", "test": "Antimicrobial activity against Rhizoctonia solani assessed as colony diameter at 0.1 ug/plug after 3 days ( Rvb = 2.95 +/- 0.11 cm)"}, "Rhizoctonia solani [11]": {"tested_on": "Rhizoctonia solani", "test": "Antimicrobial activity against Rhizoctonia solani assessed as colony diameter at 0.01 ug/plug after 3 days ( Rvb = 2.95 +/- 0.11 cm)"}, "Gaeumannomyces tritici [12]": {"tested_on": "Gaeumannomyces tritici", "test": "Antimicrobial activity against Gaeumannomyces graminis var. tritici assessed as colony diameter at 200 ug/plug after 3 days ( Rvb = 1.40+/- 0.8 cm)"}, "Gaeumannomyces tritici [13]": {"tested_on": "Gaeumannomyces tritici", "test": "Antimicrobial activity against Gaeumannomyces graminis var. tritici assessed as colony diameter at 100 ug/plug after 3 days ( Rvb = 1.40+/- 0.8 cm)"}, "Gaeumannomyces tritici [14]": {"tested_on": "Gaeumannomyces tritici", "test": "Antimicrobial activity against Gaeumannomyces graminis var. tritici assessed as colony diameter at 10 ug/plug after 3 days ( Rvb = 1.40+/- 0.8 cm)"}, "Gaeumannomyces tritici [15]": {"tested_on": "Gaeumannomyces tritici", "test": "Antimicrobial activity against Gaeumannomyces graminis var. tritici assessed as colony diameter at 1 ug/plug after 3 days ( Rvb = 1.40+/- 0.8 cm)"}, "Gaeumannomyces tritici [16]": {"tested_on": "Gaeumannomyces tritici", "test": "Antimicrobial activity against Gaeumannomyces graminis var. tritici assessed as colony diameter at 0.1 ug/plug after 3 days ( Rvb = 1.40+/- 0.8 cm)"}, "Gaeumannomyces tritici [17]": {"tested_on": "Gaeumannomyces tritici", "test": "Antimicrobial activity against Gaeumannomyces graminis var. tritici assessed as colony diameter at 0.01 ug/plug after 3 days ( Rvb = 1.40+/- 0.8 cm)"}, "Globisporangium ultimum [18]": {"tested_on": "Globisporangium ultimum", "test": "Antimicrobial activity against Pythium ultimum assessed as colony diameter at 200 ug/plug after 3 days ( Rvb = 8.50 cm)"}}}
{"smiles": "C/C=C/C=C/CC1=C(CC(C)O)C(=O)OC1", "note": "(stereo unspecified) [HARZIANOLIDE]", "values": [{"measurement": "Activity", "setting": "Globisporangium ultimum [1]", "result": 8.5, "unit": "cm"}, {"measurement": "Activity", "setting": "Globisporangium ultimum [2]", "result": 8.5, "unit": "cm"}, {"measurement": "Activity", "setting": "Globisporangium ultimum [3]", "result": 8.5, "unit": "cm"}, {"measurement": "Activity", "setting": "Globisporangium ultimum [4]", "result": 8.5, "unit": "cm"}, {"measurement": "Activity", "setting": "Globisporangium ultimum [5]", "result": 8.5, "unit": "cm"}, {"measurement": "Activity", "setting": "Rhizoctonia solani [6]", "result": 2.35, "unit": "cm"}, {"measurement": "Activity", "setting": "Rhizoctonia solani [7]", "result": 2.7, "unit": "cm"}, {"measurement": "Activity", "setting": "Rhizoctonia solani [8]", "result": 3.05, "unit": "cm"}, {"measurement": "Activity", "setting": "Rhizoctonia solani [9]", "result": 2.5, "unit": "cm"}, {"measurement": "Activity", "setting": "Rhizoctonia solani [10]", "result": 2.83, "unit": "cm"}, {"measurement": "Activity", "setting": "Rhizoctonia solani [11]", "result": 2.8, "unit": "cm"}, {"measurement": "Activity", "setting": "Gaeumannomyces tritici [12]", "result": 0.7, "unit": "cm"}, {"measurement": "Activity", "setting": "Gaeumannomyces tritici [13]", "result": 1.25, "unit": "cm"}, {"measurement": "Activity", "setting": "Gaeumannomyces tritici [14]", "result": 1.1, "unit": "cm"}, {"measurement": "Activity", "setting": "Gaeumannomyces tritici [15]", "result": 1.43, "unit": "cm"}, {"measurement": "Activity", "setting": "Gaeumannomyces tritici [16]", "result": 1.25, "unit": "cm"}, {"measurement": "Activity", "setting": "Gaeumannomyces tritici [17]", "result": 1.05, "unit": "cm"}, {"measurement": "Activity", "setting": "Globisporangium ultimum [18]", "result": 7.6, "unit": "cm"}]}
{"smiles": "C/C=C/CC(C)C(=O)c1c(O)c(OC)c(OC)[nH]c1=O", "note": "(stereo unspecified) [HARZIANOPYRIDONE]", "values": [{"measurement": "Activity", "setting": "Globisporangium ultimum [1]", "result": 7.9, "unit": "cm"}, {"measurement": "Activity", "setting": "Globisporangium ultimum [2]", "result": 8.5, "unit": "cm"}, {"measurement": "Activity", "setting": "Globisporangium ultimum [3]", "result": 8.5, "unit": "cm"}, {"measurement": "Activity", "setting": "Globisporangium ultimum [4]", "result": 8.5, "unit": "cm"}, {"measurement": "Activity", "setting": "Globisporangium ultimum [5]", "result": 8.5, "unit": "cm"}, {"measurement": "Activity", "setting": "Rhizoctonia solani [7]", "result": 0, "unit": "cm"}, {"measurement": "Activity", "setting": "Rhizoctonia solani [8]", "result": 0, "unit": "cm"}, {"measurement": "Activity", "setting": "Rhizoctonia solani [9]", "result": 1.2, "unit": "cm"}, {"measurement": "Activity", "setting": "Rhizoctonia solani [10]", "result": 2.53, "unit": "cm"}, {"measurement": "Activity", "setting": "Rhizoctonia solani [11]", "result": 2.73, "unit": "cm"}, {"measurement": "Activity", "setting": "Gaeumannomyces tritici [13]", "result": 0, "unit": "cm"}, {"measurement": "Activity", "setting": "Gaeumannomyces tritici [14]", "result": 0, "unit": "cm"}, {"measurement": "Activity", "setting": "Gaeumannomyces tritici [15]", "result": 0, "unit": "cm"}, {"measurement": "Activity", "setting": "Gaeumannomyces tritici [16]", "result": 0.7, "unit": "cm"}, {"measurement": "Activity", "setting": "Gaeumannomyces tritici [17]", "result": 0.98, "unit": "cm"}]}
{"smiles": "C/C=C/C=C/C1=CC2=CC(=O)[C@](C)(OC(=O)[C@H](C)O)C(=O)C2=CO1", "note": "[T22AZAPHILONE]", "values": [{"measurement": "Activity", "setting": "Globisporangium ultimum [1]", "result": 0, "unit": "cm"}, {"measurement": "Activity", "setting": "Globisporangium ultimum [2]", "result": 5.2, "unit": "cm"}, {"measurement": "Activity", "setting": "Globisporangium ultimum [3]", "result": 8.3, "unit": "cm"}, {"measurement": "Activity", "setting": "Globisporangium ultimum [4]", "result": 8.5, "unit": "cm"}, {"measurement": "Activity", "setting": "Globisporangium ultimum [5]", "result": 8.5, "unit": "cm"}, {"measurement": "Activity", "setting": "Rhizoctonia solani [7]", "result": 0, "unit": "cm"}, {"measurement": "Activity", "setting": "Rhizoctonia solani [8]", "result": 0, "unit": "cm"}, {"measurement": "Activity", "setting": "Rhizoctonia solani [9]", "result": 1.9, "unit": "cm"}, {"measurement": "Activity", "setting": "Rhizoctonia solani [10]", "result": 2.83, "unit": "cm"}, {"measurement": "Activity", "setting": "Rhizoctonia solani [11]", "result": 2.9, "unit": "cm"}, {"measurement": "Activity", "setting": "Gaeumannomyces tritici [13]", "result": 0, "unit": "cm"}, {"measurement": "Activity", "setting": "Gaeumannomyces tritici [14]", "result": 0, "unit": "cm"}, {"measurement": "Activity", "setting": "Gaeumannomyces tritici [15]", "result": 0, "unit": "cm"}, {"measurement": "Activity", "setting": "Gaeumannomyces tritici [16]", "result": 1.13, "unit": "cm"}, {"measurement": "Activity", "setting": "Gaeumannomyces tritici [17]", "result": 1.18, "unit": "cm"}]}
{"smiles": "C/C=C/C=C/CC1=C(CC(C)=O)C(=O)OC1", "note": "[T39BUTENOLIDE]", "values": [{"measurement": "Activity", "setting": "Globisporangium ultimum [1]", "result": 8.05, "unit": "cm"}, {"measurement": "Activity", "setting": "Globisporangium ultimum [2]", "result": 8.5, "unit": "cm"}, {"measurement": "Activity", "setting": "Globisporangium ultimum [3]", "result": 8.5, "unit": "cm"}, {"measurement": "Activity", "setting": "Globisporangium ultimum [4]", "result": 8.5, "unit": "cm"}, {"measurement": "Activity", "setting": "Globisporangium ultimum [5]", "result": 8.5, "unit": "cm"}, {"measurement": "Activity", "setting": "Rhizoctonia solani [6]", "result": 0, "unit": "cm"}, {"measurement": "Activity", "setting": "Rhizoctonia solani [7]", "result": 0, "unit": "cm"}, {"measurement": "Activity", "setting": "Rhizoctonia solani [8]", "result": 2.13, "unit": "cm"}, {"measurement": "Activity", "setting": "Rhizoctonia solani [9]", "result": 2.4, "unit": "cm"}, {"measurement": "Activity", "setting": "Rhizoctonia solani [10]", "result": 2.5, "unit": "cm"}, {"measurement": "Activity", "setting": "Rhizoctonia solani [11]", "result": 2.73, "unit": "cm"}, {"measurement": "Activity", "setting": "Gaeumannomyces tritici [12]", "result": 0, "unit": "cm"}, {"measurement": "Activity", "setting": "Gaeumannomyces tritici [13]", "result": 0, "unit": "cm"}, {"measurement": "Activity", "setting": "Gaeumannomyces tritici [14]", "result": 1.23, "unit": "cm"}, {"measurement": "Activity", "setting": "Gaeumannomyces tritici [15]", "result": 1.1, "unit": "cm"}, {"measurement": "Activity", "setting": "Gaeumannomyces tritici [16]", "result": 1.13, "unit": "cm"}, {"measurement": "Activity", "setting": "Gaeumannomyces tritici [17]", "result": 1.2, "unit": "cm"}, {"measurement": "Activity", "setting": "Globisporangium ultimum [18]", "result": 6.35, "unit": "cm"}]}
